In the assay the test system is Tetrahymena thermophila cells. Description: Oligo-cell experiments: cloning efficiency in synthetic nutrient medium. Type of assay: cell-based. From the text: The invention was the result of a laboratory test program using in vivo cell signalling model. The application of a nutritionally complete synthetic (NCS) medium in an oligo-cell experimental research program in which cells demise (or eventually have a prolonged lag-phase) was used for gaining scientific information related to determining the effectiveness of pectins and pectin and extensin combinations as biochemical messengers. An additional control was supplemented with cephalin, that activates cells to multiplication. The effect of an activator added to the NCS medium is compared directly to the control that demises. Apparently, any compound or combination of compounds can be examined in light of the question whether it can activate a cell to survive and/or proliferate. From the beginning of the 1980's the effect of biochemical messengers has been examined with cells grown in an NCS medium free of proteins, lipids, and sugars. Signalling applies to unicellular and multicellular organisms, and the idea of NCS media is that a biochemical messenger can be tested for its biological effect on the cells to gain insight in cellular signalling mechanisms. Biochemical messengers are related to the four biological cornerstones of the eukaryotic cell: survival, proliferation, differentiation, and programmed cell death.
In oligo-cell experiments, different pectins and combinations of pectins and extensins were examined for their ability to activate Tetrahymena thermophila cells to survival and/or proliferation. The Tetrahymena cell has nutritional requirements similar to those of animals. They contain subcellular organelles such as mitochondria and peroxisomes, which are essential for the development of regulatory mechanisms in cellular metabolism. […]
Cloning efficiencies were determined from cell multiplications in a synthetic nutrient medium without and with supplements. […]

The values that follow come from patent US6794495B1, “Composition comprising extensin and, optionally, pectic polysaccharides” (New Nordic Danmark APS, priority 1998, dated 2004).

Take cephalin: the Cloning efficiencies by setting is: (50 mg/L in synthetic nutrient medium, experiments with cell multiplication after 30 hours / total experiments, about two cells in two mL, first experiment) 15/15; (50 mg/L in synthetic nutrient medium, experiments with cell multiplication after 30 hours / total experiments, about two cells in two mL, second experiment (sugar beet fiber)) 15/15; (controls supplemented with cephalin, evaluated after 30 hours) 92%.
